Where two headings read alike, the source gives them in different places.
How the values were obtained:
[1] = target: SARS-CoV-2 3CLPro (Severe acute respiratory syndrome coronavirus 2 (2019-nCoV) (SARS-CoV-2), UniProt P0DTD1); assay: biochemical; conditions: final DMSO concentration 2%
[2] = tested on: MK-801 treated mice; assay: Pre-pulse inhibition (PPI) test, MK-801 induced deficit of sensorimotor gating; assay type: in vivo; conditions: MK-801 0.3 mg/kg i.p.
Method: (§1) C57BL/6J male mice were group housed (3-5 mice per cage) with food and water available ad libitum in polysulfone ventilated cages (Alternative Design, AR, USA) in the animal room of SyneuRx. The colony was maintained on a 12/12-h light/dark cycle at the temperature of 22±2° C. and all behavioral studies were performed during the dark cycle. All animals used in this study were adult mice (at least 2.5 months of age). All animal procedures were performed according to the protocols approved by Institutional Animal Care and Use Committee (IACUC).
(§2) The mice were randomly assigned into five groups for open field test, Group 1: vehicle control, Group 2: MK-801, Group 3: Compound 66 at 10 mg/kg+MK-801, Group 4: Compound 66 at 30 mg/kg+MK-801, Group 5: Compound 66 at 100 mg/kg+MK-801. Mice at Group 2-5 received an acute administration of MK-801 (Sigma-Aldrich USA), a NMDA receptor antagonist, dissolved in normal saline, at 0.2 mg/kg for open field. For pre-pulse inhibition (PPI) test, animal was randomly assigned for four groups, Group 1: vehicle control, Group 2: MK-801, Group 3: Compound 66 at 3 mg/kg+MK-801, Group 4: Compound 66 at 10 mg/kg. Group 2-4 was received 0.3 mg/kg, MK-801. MK-801 was administrated by i.p. injection 20 minutes prior to open field and PPI tests. Test article, compound 66 (dissolved in ddH2O with 65% PEG400 and 10% DMSO), was orally treated 20 minutes prior to the MK-801 administration.
Pre-pulse inhibition, using SR-LAB startle apparatus (San Diego Instruments, San Diego, CA, USA), was used to determine the efficacy of compound 66 on attenuating the MK-801 induced deficit of sensorimotor gating function in mice. Under 65 dB background noise, each session was composed of a 5-minute accumulation period followed by 64 trials in four blocks. The pulse alone (PA) trial was a 40 ms, 120 dB white noise burst. In the prepulse (pp)+pulse trials, a 20 ms white noise prepulse stimuli of 71 dB (pp6), 75 dB (pp10), and 83 dB (pp18) were presented 100 ms before a 40 ms 120 dB pulse. The non-stimulus (NS) trials presented the background noise only. The initial and the last blocks were composed of six PA trials, respectively. Two middle blocks consisted of PA, pp+pulse, and NS trials. These trials were presented pseudo-randomly and separated by intertribal intervals of 15 seconds on average (varying between 10 to 20 s). The percentage of prepulse inhibition was evaluated by the following formula: % PPI=100×[(PA score)−(pp-P score)]/(PA score), where the PA score was the average of the PA value in the middle blocks.
as §2, with “74” for “66”, “field test.” for “field.”
All mice were tested with open field and pre-pulse inhibition tasks. The open field and pre-pulse inhibition tasks were used to evaluate the efficacy of the compound 74 on attenuating the MK-801 induced hyper-locomotion and deficit of sensorimotor gating function in mice, respectively. The apparatus and recording method of open field and pre-pulse inhibition task were as described above in Example 45. […]

[3] = tested on: MK-801 treated mice; assay: Open field test, MK-801 induced hyper-locomotion; assay type: in vivo; conditions: for relief of MK801-induced hyperactivity: MK-801 0.2 mg/kg i.p., open field
Method: as §1, §2
The open field task is a common measurement of novelty induced exploratory behavior and general activity in both mice and rats. The objective of this experiment was to evaluate the efficacy of compound 66 on attenuating the MK-801 induced hyper-locomotion. In this study, the mice were placed in a Plexiglas cage (37.5 cm×21.5 cm×18 cm) under 50-65 lux light intensity. Their spontaneous locomotor activities were measured for 60 minutes using the Photobeam Activity System (PAS)-open field (San Diego Instruments, San Diego, CA, USA). The total number of photo beam breaks of each mouse was measured as an index of locomotion activity.
as §2, with “74” for “66”, “field test.” for “field.”
All mice were tested with open field and pre-pulse inhibition tasks. The open field and pre-pulse inhibition tasks were used to evaluate the efficacy of the compound 74 on attenuating the MK-801 induced hyper-locomotion and deficit of sensorimotor gating function in mice, respectively. The apparatus and recording method of open field and pre-pulse inhibition task were as described above in Example 45.
Mice at Group 2-5 received an acute administration of MK-801 (Sigma-Aldrich USA), a NMDA receptor antagonist, dissolved in normal saline, at 0.2 mg/kg for open field test. […] Group […] was received 0.3 mg/kg, MK-801. MK-801 was administrated by i.p. injection 20 minutes prior to open field and PPI tests.
The open field task is a common measurement of novelty induced exploratory behavior and general activity in both mice and rats. […] In this study, the mice were placed in a Plexiglas cage (37.5 cm×21.5 cm×18 cm) under 50-65 lux light intensity. […]

[4] = target: human D-amino acid oxidase (hDAAO) (Homo sapiens (Human), UniProt P14920); assay: In vitro human D-amino acid oxidase (hDAAO) activity, D-Serine/Amplex Red fluorescence; assay type: biochemical; conditions: D-Serine substrate, 20 min
Chain of human D-amino acid oxidase (hDAAO) (P14920 whole entry): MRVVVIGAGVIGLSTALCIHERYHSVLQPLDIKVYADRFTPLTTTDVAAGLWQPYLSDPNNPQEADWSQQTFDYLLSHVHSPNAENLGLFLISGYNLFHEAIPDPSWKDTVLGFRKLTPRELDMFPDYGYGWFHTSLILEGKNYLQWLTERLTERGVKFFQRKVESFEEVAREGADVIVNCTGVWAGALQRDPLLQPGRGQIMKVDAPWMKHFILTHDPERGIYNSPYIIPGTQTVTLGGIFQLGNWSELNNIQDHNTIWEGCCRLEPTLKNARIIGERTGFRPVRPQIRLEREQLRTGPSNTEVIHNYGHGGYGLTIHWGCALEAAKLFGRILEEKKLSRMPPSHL
Outline: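 Recombinant hDAAO activity with D-serine as substrate; H2O2 was coupled via HRP to Amplex Red and fluorescence read at ex 530/em 590 nm at 0 and 20 min, dark, room temperature, Tris pH 8.5 with FAD. Inhibition came from the 20–0 min signal change relative to DMSO, and IC50 from nonlinear fits of 3-fold dilutions run in triplicate.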

Structure (SMILES): O=C(O)c1cc(O)c(O)c(OC(=O)c2cc(O)c(O)c(OC(=O)c3cc(O)c(O)c(OC(=O)c4cc(O)c(O)c(OC(=O)c5cc(O)c(O)c(OC(=O)c6cc(CCc7ccccc7C(F)(F)F)n[nH]6)c5)c4)c3)c2)c1 [Compound 74, 3-((3-((3-((3-((3,4-dihydroxy-5-((3-(2-(trifluoromethyl)phenethyl)-1H-pyrazole-5-carbonyl)oxy)benzoyl)oxy)-4,5-dihydroxybenzoyl)oxy)-4,5-dihydroxybenzoyl)oxy)-4,5-dihydroxybenzoyl)oxy)-4,5-dihydroxybenzoic acid]
- IC50 ([1]; read-out: IC50): > 31200 nM
- IC50 ([1]; read-out: IC50 (μg/mL) (converted)): > 31200 nM
- effect on pre-pulse inhibition vs MK-801 group ([2]; 75 dB and 83 dB pre-pulse, 10 mg/kg oral): significantly improved PPI
- effect on MK-801 induced hyper-locomotion vs MK-801 group ([3]; 30 mg/kg and 100 mg/kg oral): significantly reduced
- effect on MK-801 induced hyper-locomotion vs MK-801 group ([3]; low dose 10 mg/kg oral): marginally lower locomotion activity
- relief of MK801-induced hyperactivity ([3]; middle (30 mg/kg) and high dose (100 mg/kg) oral as worded): 69%
- IC50 [4]: 31 nM

Structure (SMILES): O=C(Oc1cc(C(=O)Oc2cc(C(=O)Oc3cc(C(=O)O[C@H]4OC[C@@H](OC(=O)c5cc(O)c(O)c(OC(=O)c6cc(O)c(O)c(OC(=O)c7cc(O)c(O)c(OC(=O)c8cc(O)c(O)c(O)c8)c7)c6)c5)[C@H](OC(=O)c5cc(O)c(O)c(OC(=O)c6cc(O)c(O)c(OC(=O)c7cc(O)c(O)c(OC(=O)c8cc(O)c(O)c(O)c8)c7)c6)c5)[C@H]4OC(=O)c4cc(O)c(O)c(OC(=O)c5cc(O)c(O)c(OC(=O)c6cc(O)c(O)c(OC(=O)c7cc(O)c(O)c(O)c7)c6)c5)c4)cc(O)c3O)cc(O)c2O)cc(O)c1O)c1cc(O)c(O)c(O)c1 [Compound 121, (2R,3R,4S,5R)-tetrahydro-2H-pyran-2,3,4,5-tetrayl tetrakis(3-((3-((3,4-dihydroxy-5-((3,4,5-trihydroxybenzoyl)oxy)benzoyl)oxy)-4,5-dihydroxybenzoyl)oxy)-4,5-dihydroxybenzoate)]
- effect on pre-pulse inhibition vs MK-801 group ([2]; 75 and 83 dB pre-pulse, all tested doses 3, 10 and 30 mg/kg oral): higher potency
- effect on MK-801 induced hyper-locomotion vs MK-801 group ([3]; 3 mg/kg and 10 mg/kg oral): marginally lower locomotion activity
- effect on MK-801 induced hyper-locomotion vs MK-801 group ([3]; high dose 30 mg/kg oral): significantly reduced
- relief of MK801-induced hyperactivity ([3]; high dose 30 mg/kg oral): 48%
- IC50 [4]: 2.5 nM

Structure (SMILES): O=C(OC[C@H]1O[C@H](OC(=O)c2cc(O)c(O)c(OC(=O)c3cc(O)c(O)c(OC(=O)c4cc(O)c(O)c(OC(=O)c5cc(O)c(O)c(O)c5)c4)c3)c2)[C@H](OC(=O)c2cc(O)c(O)c(OC(=O)c3cc(O)c(O)c(OC(=O)c4cc(O)c(O)c(OC(=O)c5cc(O)c(O)c(O)c5)c4)c3)c2)[C@@H]1OC(=O)c1cc(O)c(O)c(OC(=O)c2cc(O)c(O)c(OC(=O)c3cc(O)c(O)c(OC(=O)c4cc(O)c(O)c(O)c4)c3)c2)c1)c1cc(O)c(O)c(OC(=O)c2cc(O)c(O)c(OC(=O)c3cc(O)c(O)c(OC(=O)c4cc(O)c(O)c(O)c4)c3)c2)c1 [Compound 138, (2R,3R,4R,5R)-5-(((3-((3-((3,4-dihydroxy-5-((3,4,5-trihydroxybenzoyl)oxy)benzoyl)oxy)-4,5-dihydroxybenzoyl)oxy)-4,5-dihydroxybenzoyl)oxy)methyl)tetrahydrofuran-2,3,4-triyl tris(3-((3-((3,4-dihydroxy-5-((3,4,5-trihydroxybenzoyl)oxy)benzoyl)oxy)-4,5-dihydroxybenzoyl)oxy)-4,5-dihydroxybenzoate)]
- effect on pre-pulse inhibition vs MK-801 group ([2]; 75 dB and 83 dB pre-pulse, 3 mg/kg oral): relieve PPI deficit
- effect on MK-801 induced hyper-locomotion vs MK-801 group ([3]; 3, 10 and 30 mg/kg oral, dose-dependent): significantly reduced
- relief of MK801-induced hyperactivity ([3]; high dose 30 mg/kg oral): 43%
- IC50 [4]: 4 nM

Source: US11793823B2, “Compounds and pharmaceutical uses thereof” (SyneuRx International (Taiwan) Corp., priority 2020, dated 2023)
